Where a name gives a salt, the structure may show the parent alone. Read-outs that look alike come from different tables or passages of the source.
What was measured:
[1] = system: IL-6, IL-1β and TNF-α in mouse serum; experiment: Inflammatory factors in blood of mice with sepsis at different time points; type: in vivo
cytokine-infused rats = conditions: cited from earlier work
[2] = system: mice with sepsis-related acute lung injury; experiment: Sepsis-related acute lung injury in mice (BALF, leakage, arterial oxygen); type: in vivo
Description: Comparisons of data between the four groups are of statistical significance.
Changes in the protein content of mouse BALF, the Evans blue content and the wet/dry weight ratio are shown. […] There is a downward trend in the arterial partial pressure of oxygen in all the injury group mice relative to the normal mice.

[3] = system: TLR-4/MyD88/NF-κB signaling pathway; experiment: Related gene expression in lung tissues of mice with sepsis; type: in vivo; conditions: after treatment and prevention
Description: The differences are of statistical significance.

[4] = system: mice with LPS-induced sepsis; conditions: 20 mg/kg LPS i.p.; for average survival time: LPS group 28.8±6.22 h
Description: Method: A mouse model of sepsis was induced by intraperitoneal injection of different toxic doses of 5 mg/kg, 10 mg/kg and 20 mg/kg LPS, and the effects of different doses of LPS on the survival rate of mice with sepsis were observed.
Sepsis was induced by intraperitoneal injection of 5 mg/kg, 10 mg/kg and 20 mg/kg LPS. […] Sepsis was induced by intraperitoneal injection of 20 mg/kg LPS.

[5] = system: mice with LPS-induced sepsis; experiment: Edema in organs (wet/dry weight ratio) of mice with sepsis; type: in vivo; conditions: prevention
A549 cells = conditions: co-treatment with TNF-α or H2O2; cited from earlier work
[6] = system: mice with sepsis-related acute lung injury; experiment: Efficacy of HucMSC-NVs loaded with ergothioneine in sepsis-related acute lung injury; type: in vivo; conditions: FIG. 11 A-C
Description: Referring to FIG. 11, three classical inflammatory factors (IL-1β, IL-6, and TNF-α) in BALF are shown in panels A-C.

[7] = prevention: tail vein injection 1 h before 20 mg/kg LPS i.p., FIG. 3
[8] = treatment: tail vein injection 2 h after 20 mg/kg LPS i.p., FIG. 4

## C[N+](C)(C)[C@@H](Cc1c[nH]c(=S)[nH]1)C(=O)[O-] [ergothioneine, (S)-α-Carboxy-N,N,N-trimethyl-2-mercapto-1H-imidazole-4-ethanaminium inner salt]
[1]; [7]
  IL-1β release in blood: significantly reduced
  IL-6 release in blood: significantly reduced
[1]; [8]
  IL-6 release in blood: significantly reduced
  TNF-α release in blood: significantly reduced
cytokine-infused rats
  acute lung injury: reduce acute lung injury
[2]; different concentrations of EGT, FIG. 7 G
  arterial partial pressure of oxygen: significantly improved
[2]; four groups with different concentrations of ergothioneine, FIG. 7 A-C
  inflammatory factor levels in BALF (IL-1β, IL-6 and TNF-α): reduced inflammatory factor levels in BALF
[3]; FIG. 9 A
  TLR-4 gene expression: significantly down-regulated
[3]; FIG. 9 B
  MyD88 gene expression: significantly down-regulated
[3]; FIG. 9 C
  NF-κB gene expression: significantly down-regulated
[4]; 5 mg/kg ergothioneine
  average survival time: 41.4 ± 10.48 h
[4]; 10 mg/kg ergothioneine
  average survival time: 44.4 ± 3.921 h
[4]; FIG. 2
  mortality in mice with sepsis: reduced mortality
[4]; 50 mg/kg ergothioneine
  average survival time: 46.8 ± 2.68 h
[4]; prevention, 5 mg/kg ergothioneine
  mice died: 2 mice
[4]; prevention, 10 mg/kg ergothioneine
  mice died: 3 mice
[4]; prevention, 20 mg/kg ergothioneine
  mice died: all
[4]; prevention, 50 mg/kg ergothioneine
  mice died: 1 mouse
[4]; treatment, 5 mg/kg ergothioneine
  mice died: all
[4]; treatment, 10 mg/kg ergothioneine
  mice died: all
[4]; treatment, 20 mg/kg ergothioneine
  mice died: 4 mice
[4]; treatment, 50 mg/kg ergothioneine
  mice died: 3 mice
[5]
  kidney edema: not significantly ameliorated
A549 cells
  GSH level: protected the cells from decreases in the GSH level
  NF-κB activation: inhibited NF-κB activation
[6]
  level of inflammatory factors in BALF (IL-6, TNF-α, IL-1β): reduced the level of inflammatory factors in BALF
